From article PMC11799239, “Mechanistic insights into Rho/MRTF inhibition-induced apoptotic events and prevention of drug resistance in melanoma: implications for the involvement of pirin” (Frontiers in Pharmacology, 2025)

Target: T1, pirin (Homo sapiens, UniProt O00625)
T1 construct: gene PIR
T1 sequence (O00625 1-290): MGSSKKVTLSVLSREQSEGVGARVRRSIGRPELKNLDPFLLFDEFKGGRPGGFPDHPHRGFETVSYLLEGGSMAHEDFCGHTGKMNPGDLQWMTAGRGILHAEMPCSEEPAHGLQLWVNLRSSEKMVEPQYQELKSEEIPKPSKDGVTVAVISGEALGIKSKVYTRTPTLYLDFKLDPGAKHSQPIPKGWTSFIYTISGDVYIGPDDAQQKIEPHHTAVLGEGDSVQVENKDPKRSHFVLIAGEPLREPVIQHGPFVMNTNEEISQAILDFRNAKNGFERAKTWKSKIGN
Test: fluorescence polarization competition with a pirin FP reporter compound
Assay type: binding
Conditions: read-out: CCG-257081 (S enantiomer) [drawing 1]

- IC50: 8 µM
SMILES: O=C(Nc1ccc(Cl)cc1)[C@@H]1CN(C(=O)c2cc(F)cc(-c3ccncc3)c2)CC(F)(F)C1 [(S) CCG-257081]
